The values below are quoted from earlier work in patent US20250289851A1, “CYCLIC PEPTIDES FOR DELIVERING THERAPEUTICS” (ENTRADA THERAPEUTICS, INC., priority 2022, published 2025).

For data set [1] the following is noted: hydrophobicity value, scale of Eisenberg and Weiss.
For data set [2] the following is noted: hydrophobicity value, scale of Kyte and Doolittle.
For data set [3] the following is noted: hydrophobicity value, scale of Hoop and Woods.
The conditions of data set [4]: hydrophobicity value, scale of Janin.
The conditions of data set [5]: hydrophobicity value, scale of Engleman et al.

Structures are written as SMILES.

On to `CC[C@H](C)[C@H](N)C(=O)O` [Ile, Isoleucine], for which the “Amino Acid Hydrophobicity, Eisenberg and Weiss” value in data set [1] is reported as 0.73. Besides, the “Amino Acid Hydrophobicity, Kyte and Doolittle” value in data set [2] is listed as 4.5. For the same molecule, the “Amino Acid Hydrophobicity, Hoop and Woods” value in data set [3] is given as −1.8. For the same molecule, the “Amino Acid Hydrophobicity, Janin” value in data set [4] is listed as 0.7. The “Amino Acid Hydrophobicity, Engleman et al.” value in data set [5] is 3.1.
